Publication PMC6364417, “Kinase inhibitor library screening identifies synergistic drug combinations effective in sensitive and resistant melanoma cells” (Journal of Experimental & Clinical Cancer Research : CR, 2019)
Where “and” joins values, the source holds several entries; their conditions need not be identical. Equal entries are not always repeated. Where two headings read alike, the source gives them in different places.

Legend:
Assay in all cases: Kinase inhibitor library screening, PrestoBlue cell viability, 1 or 10 μM, 72 h
IGR37 cells (parental) = tested on: IGR37 cells (parental)
[1] = tested on: IGR37-XP cells (Vemurafenib-resistant)
[2] = tested on: A375-XP cells (Vemurafenib-resistant)
[3] = tested on: IGR37-GP cells (Dabrafenib-resistant)
[4] = tested on: 501Mel-XP cells (Vemurafenib-resistant)
[5] = tested on: 501Mel-GP cells (Dabrafenib-resistant)
501Mel cells (parental) = tested on: 501Mel cells (parental)
Summary of the method: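 Cells are treated with each inhibitor at 1 or 10 μM, incubated 72 h, then PrestoBlue reagent is added and the plate is read. Data are normalised to untreated cells.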

A375 cells (parental) = tested on: A375 cells (parental)
[6] = tested on: A375-GP cells (Dabrafenib-resistant)

SMILES: CC[C@H](CO)Nc1nc(NCc2ccccc2)c2ncn(C(C)C)c2n1 [Roscovitine (Seliciclib, CYC202)]
- cell viability (kinase inhibitor library screening) (IGR37 cells (parental)): 85.4% and 104.3%
- cell viability (kinase inhibitor library screening) [1]: 96.5% and 59.2%
- cell viability (kinase inhibitor library screening) [2]: 109.6% and 86.5%
- cell viability (kinase inhibitor library screening) [3]: 93.8% and 90.7%
- cell viability (kinase inhibitor library screening) [4]: 93.6% and 61.7%
- cell viability (kinase inhibitor library screening) [5]: 85.2%
- cell viability (kinase inhibitor library screening) (501Mel cells (parental)): 95.0% and 93.4%
- cell viability (kinase inhibitor library screening) (A375 cells (parental)): 90.5%
- cell viability (kinase inhibitor library screening) [6]: 109.1% and 86.5%

SMILES: N#CC[C@H](C1CCCC1)n1cc(-c2ncnc3[nH]ccc23)cn1 [Ruxolitinib (INCB018424)]
- viability at 1 µM (IGR37 cells (parental); Homo sapiens, IGR-37, 72 h, read-out: cell viability, IGR37 Parental, 1μΜ): 97%
- viability at 10 µM (IGR37 cells (parental); Homo sapiens, IGR-37, 72 h, read-out: cell viability, IGR37 Parental, 10μΜ): 96.3%
- viability at 1 µM ([1]; Homo sapiens, IGR-37, 72 h, read-out: cell viability, IGR37 XP, 1μΜ): 103%
- viability at 10 µM ([1]; Homo sapiens, IGR-37, 72 h, read-out: cell viability, IGR37 XP, 10μΜ): 76.6%
- viability at 1 µM ([2]; Homo sapiens, A-375, 72 h, read-out: cell viability, A375 XP, 1μΜ): 102%
- viability at 10 µM ([2]; Homo sapiens, A-375, 72 h, read-out: cell viability, A375 XP, 10μΜ): 106%
- viability at 1 µM ([3]; Homo sapiens, IGR-37, 72 h, read-out: cell viability, IGR37 GP, 1μΜ): 93.2%
- viability at 10 µM ([3]; Homo sapiens, IGR-37, 72 h, read-out: cell viability, IGR37 GP, 10μΜ): 88.6%
- viability at 1 µM ([4]; Homo sapiens, 72 h, read-out: cell viability, 501Mel XP, 1μΜ): 93.9%
- viability at 10 µM ([4]; Homo sapiens, 72 h, read-out: cell viability, 501Mel XP, 10μΜ): 86.6%
- viability at 1 µM ([5]; Homo sapiens, 72 h, read-out: cell viability, 501Mel GP, 1μΜ): 103%
- viability at 10 µM ([5]; Homo sapiens, 72 h, read-out: cell viability, 501Mel GP, 10μΜ): 87.9%
- viability at 1 µM (501Mel cells (parental); Homo sapiens, 72 h, read-out: cell viability, 501Mel Parental, 1μΜ): 95.6%
- viability at 10 µM (501Mel cells (parental); Homo sapiens, 72 h, read-out: cell viability, 501Mel Parental, 10μΜ): 96.5%
- viability at 1 µM (A375 cells (parental); Homo sapiens, A-375, 72 h, read-out: cell viability, A375 Parental, 1μΜ): 102%
- viability at 10 µM (A375 cells (parental); Homo sapiens, A-375, 72 h, read-out: cell viability, A375 Parental, 10μΜ): 92.9%
- viability at 1 µM ([6]; Homo sapiens, A-375, 72 h, read-out: cell viability, A375 GP, 1μΜ): 95.8%
- viability at 10 µM ([6]; Homo sapiens, A-375, 72 h, read-out: cell viability, A375 GP, 10μΜ): 88.9%

SMILES: CN(C)CCOc1ccc(-c2nc(-c3ccncc3)c(-c3ccc4c(c3)CC/C4=N\O)[nH]2)cc1 [SB590885]
- cell viability (kinase inhibitor library screening) (IGR37 cells (parental); IGR37 Parental, 1μΜ, in %): 52.0
- cell viability (kinase inhibitor library screening) (IGR37 cells (parental); IGR37 Parental, 10μΜ, in %): 40.7
- cell viability (kinase inhibitor library screening) ([1]; IGR37 XP, 10μΜ, in %): 30.0
- cell viability (kinase inhibitor library screening) ([2]; A375 XP, 1μΜ, in %): 71.7
- cell viability (kinase inhibitor library screening) ([2]; A375 XP, 10μΜ, in %): 18.9
- cell viability (kinase inhibitor library screening) ([3]; IGR37 GP, 10μΜ, in %): 79.6
- cell viability (kinase inhibitor library screening) ([4]; 501Mel XP, 1μΜ, in %): 121.3
- cell viability (kinase inhibitor library screening) ([4]; 501Mel XP, 10μΜ, in %): 0.7
- cell viability (kinase inhibitor library screening) ([5]; 501Mel GP, 1μΜ, in %): 110.5
- cell viability (kinase inhibitor library screening) ([5]; 501Mel GP, 10μΜ, in %): 0.56
- cell viability (kinase inhibitor library screening) (501Mel cells (parental); 501Mel Parental, 1μΜ, in %): 74.7
- cell viability (kinase inhibitor library screening) (501Mel cells (parental); 501Mel Parental, 10μΜ, in %): 0.649
- cell viability (kinase inhibitor library screening) (A375 cells (parental); A375 Parental, 1μΜ, in %): 38.0
- cell viability (kinase inhibitor library screening) (A375 cells (parental); A375 Parental, 10μΜ, in %): 33.1
- cell viability (kinase inhibitor library screening) ([6]; A375 GP, 1μΜ, in %): 73.8
- cell viability (kinase inhibitor library screening) ([6]; A375 GP, 10μΜ, in %): 25.8

SMILES: Oc1ccc(-c2nc(-c3ccncc3)c(-c3ccc(F)cc3)[nH]2)cc1 [SB 202190]
- Cell viability in kinase inhibitor library screening, IGR37 Parental, 1μΜ (IGR37 cells (parental); IGR37 Parental, 1μΜ, 72 h, in %): 118.8
- Cell viability in kinase inhibitor library screening, IGR37 Parental, 10μΜ (IGR37 cells (parental); IGR37 Parental, 10μΜ, 72 h, in %): 83.2
- Cell viability in kinase inhibitor library screening, IGR37 XP, 10μΜ ([1]; IGR37 XP, 10μΜ, 72 h): 56.3%
- Cell viability in kinase inhibitor library screening, IGR37 XP, 1μΜ ([1]; IGR37 XP, 1μΜ, 72 h, in %): 103.1
- Cell viability in kinase inhibitor library screening, A375 XP, 10μΜ ([2]; A375 XP, 10μΜ, 72 h): 98.7
- Cell viability in kinase inhibitor library screening, IGR37 GP, 10μΜ ([3]; IGR37 GP, 10μΜ, 72 h): 85.3%
- Cell viability in kinase inhibitor library screening, IGR37 GP, 1μΜ ([3]; IGR37 GP, 1μΜ, 72 h, in %): 104.9
- Cell viability in kinase inhibitor library screening, 501Mel XP, 1μΜ ([4]; 501Mel XP, 1μΜ, 72 h, in %): 98.4
- Cell viability in kinase inhibitor library screening, 501Mel XP, 10μΜ ([4]; 501Mel XP, 10μΜ, 72 h, in %): 74.6
- Cell viability in kinase inhibitor library screening, 501Mel GP, 1μΜ ([5]; 501Mel GP, 1μΜ, 72 h, in %): 108.3
- Cell viability in kinase inhibitor library screening, 501Mel GP, 10μΜ ([5]; 501Mel GP, 10μΜ, 72 h, in %): 90.0
- Cell viability in kinase inhibitor library screening, 501Mel Parental, 1μΜ (501Mel cells (parental); 501Mel Parental, 1μΜ, 72 h, in %): 105.7
- Cell viability in kinase inhibitor library screening, 501Mel Parental, 10μΜ (501Mel cells (parental); 501Mel Parental, 10μΜ, 72 h, in %): 89.1
- Cell viability in kinase inhibitor library screening, A375 Parental, 10μΜ (A375 cells (parental); A375 Parental, 10μΜ, 72 h): 64.6
- Cell viability in kinase inhibitor library screening, A375 Parental, 1μΜ (A375 cells (parental); A375 Parental, 1μΜ, 72 h): 114.0
- Cell viability in kinase inhibitor library screening, A375 GP, 1μΜ ([6]; A375 GP, 1μΜ, 72 h): 105.4
- Cell viability in kinase inhibitor library screening, A375 GP, 10μΜ ([6]; A375 GP, 10μΜ, 72 h): 98.4
